Data taken from PMC3050527 (Bioorganic & medicinal chemistry, 2010).
Entries after “also recorded” stand apart in the source; their conditions may differ.

Assays:
Type in all cases: biochemical
[1] = molecular target: T1, hGX sPLA2 (Homo sapiens, UniProt O15496); assay: continuous fluorimetric sPLA2 assay, human GX
T1 sequence (O15496 43-165): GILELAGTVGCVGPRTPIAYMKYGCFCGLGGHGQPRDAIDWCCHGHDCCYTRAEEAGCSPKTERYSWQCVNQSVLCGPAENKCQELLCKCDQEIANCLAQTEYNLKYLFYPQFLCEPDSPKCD

[2] = molecular target: T2, cPLA2 (Homo sapiens, UniProt P47712); assay: inhibition of cPLA2; settings: at 1µµ
T2 sequence (P47712 1-749): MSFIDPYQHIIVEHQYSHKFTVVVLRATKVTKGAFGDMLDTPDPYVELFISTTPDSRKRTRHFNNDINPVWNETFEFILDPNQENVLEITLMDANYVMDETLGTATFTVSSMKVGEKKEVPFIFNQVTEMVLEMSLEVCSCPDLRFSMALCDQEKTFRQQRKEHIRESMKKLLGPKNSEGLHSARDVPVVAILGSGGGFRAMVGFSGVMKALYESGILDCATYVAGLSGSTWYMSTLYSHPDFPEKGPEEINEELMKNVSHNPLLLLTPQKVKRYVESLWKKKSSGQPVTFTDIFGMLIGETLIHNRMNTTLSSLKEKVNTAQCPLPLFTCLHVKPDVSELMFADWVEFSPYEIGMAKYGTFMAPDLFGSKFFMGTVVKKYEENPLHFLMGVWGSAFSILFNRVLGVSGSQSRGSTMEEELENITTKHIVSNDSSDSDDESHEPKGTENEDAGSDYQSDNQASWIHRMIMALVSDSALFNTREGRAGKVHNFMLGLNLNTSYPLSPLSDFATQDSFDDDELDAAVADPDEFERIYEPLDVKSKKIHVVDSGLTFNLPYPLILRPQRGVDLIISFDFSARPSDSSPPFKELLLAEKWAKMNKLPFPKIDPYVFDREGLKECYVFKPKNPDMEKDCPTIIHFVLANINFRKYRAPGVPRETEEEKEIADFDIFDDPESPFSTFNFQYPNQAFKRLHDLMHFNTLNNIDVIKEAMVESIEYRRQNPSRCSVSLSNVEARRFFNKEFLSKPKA

[3] = molecular target: T3, hGIIA sPLA2 (Homo sapiens, UniProt P14555); assay: continuous fluorimetric sPLA2 assay, human GIIA; settings: compared with GK126
T3 sequence (P14555 21-144): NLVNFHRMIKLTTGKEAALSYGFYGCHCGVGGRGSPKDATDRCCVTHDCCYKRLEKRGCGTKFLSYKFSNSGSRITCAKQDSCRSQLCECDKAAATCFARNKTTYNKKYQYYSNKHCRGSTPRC

inhibition against cPLA2 [2] [%]	sPLA2 inhibitory activity (in words) [3]	Structure (SMILES)	inhibition of human GX sPLA2 (in words) [1]
≤ 12	–	CCCCCCCCCCCCCCC(=O)C(=O)N[C@@H](CC(C)C)C(=O)O [GK126, (S)-4-Methyl-2-(2-oxohexadecanamido)pentanoic acid]	did not show any inhibition; also recorded: did not display any measurable inhibition
–	inactive	CCCCCCCCCCCCCCC(=O)C(=O)N[C@@H](Cc1ccccc1)C(=O)O [GK141, (S)-2-(2-Oxohexadecanamido)-3-phenylpropanoic acid]	–
–	inactive	CCCCCCCCCCCCCCCC(=O)N[C@@H](CC(C)C)C(=O)O [GK144, (S)-4-Methyl-2-palmitamidopentanoic acid]	–
